US6545151B2, “Pentacyclic compound” (Daiichi Pharmaceutical Co., Ltd., priority 1995, dated 2003)
≈ marks a conversion by molar mass, not a printed value.

How the values were obtained:
[1] = test system: P388; experiment: MTT cell proliferation test, P388; format: cell-based; conditions: P388 tumor cell line, cultured for 3 days, absorbance at 540 nm
Method: (§1) Cells of each of three tumor cell lines, P388, PC-6 and PC-12, were inoculated into a 96 well microplate in an inoculum size of 5.0×10^2 cells/150 μl/well (P388), 5.0×10^3 cells/150 μl/well (PC-6) or 1.0×10^3 cells/150 μl/well (PC-12), and 50 μl/well of each sample was added to the plate 2 hours thereafter in the case of P388 or 24 hours thereafter in the case of the other two. Thereafter, the cells were cultured for 3 days and then 5 mg/ml solution of MTT [3-(4,5-dimethylthiazol-2-yl)-2,5-diphenyl-2H-tetrazolium bromide] was dispensed in 20 μl/well portions into wells of the microplate. Four hours thereafter, the culture medium was removed, 150 μl of dimethyl sulfoxide was added to each well and then absorbance at 540 nm was measured. The antitumor effect is shown as GI50 value (ng/ml) of each drug which decreases cell proliferation in each drug-added group to 50% of that in the control group.

[2] = test system: PC-6; experiment: MTT cell proliferation test, PC-6; format: cell-based; conditions: PC-6 tumor cell line, cultured for 3 days, absorbance at 540 nm
Method: as §1

[3] = test system: PC-12; experiment: MTT cell proliferation test, PC-12; format: cell-based; conditions: PC-12 tumor cell line, cultured for 3 days, absorbance at 540 nm
Method: as §1

[4] = test system: digestive organ cancers, especially large bowel cancers; conditions: clinical tests; cited from earlier work

Row | Compound | GI50 value [1] | GI50 value [2] | GI50 value [3] | efficacy on digestive organ cancers, especially large bowel cancers [4]
1 | 9β-13-O-[(2R,3R)-3-(tert-Butoxycarbonylamino)-3-(2-furyl)-2-hydroxypropionyl]-4-O-cyclopropanecarbonyl-7-deoxy-4,10-dideacetyl-6,7-didehydro-9-dihydro-9,10-O-(2-morpholinoethylidene)baccatin III [Inventive Example 123] | 0.0158 ng/mL | 0.366 ng/mL | 0.167 ng/mL | –
2 | 9β-13-O-[3-(tert-Butoxycarbonylamino)-3-(2-furyl)-2-hydroxy-2-methylpropionyl]-4-O-cyclopropanecarbonyl-4,10-dideacetyl-9-dihydro-9,10-O-(2-morpholinoethylidene)baccatin III [Inventive Example 57] | 0.0135 ng/mL | 0.734 ng/mL | 0.0739 ng/mL | –
3 | CC(=O)O[C@@]12CO[C@@H]1C[C@H](O)[C@@]1(C)C(=O)[C@H](O)C3=C(C)[C@@H](OC(=O)[C@H](O)[C@@H](NC(=O)OC(C)(C)C)c4ccccc4)C[C@@](O)([C@@H](OC(=O)c4ccccc4)[C@H]21)C3(C)C [Taxotere, reference compound] | 1.62 ng/mL (≈ 2.01 nM) | 1.16 ng/mL (≈ 1.44 nM) | 19.1 ng/mL (≈ 23.6 nM) | low efficacy
4 | 9β-13-O-[(2R,3R)-3-(tert-Butoxycarbonylamino)-3-(2-furyl)-2-hydroxypropionyl]-10-deacetyl-7-deoxy-9-dihydro-9,10-O-(2-morpholinoethylidene)baccatin III [Inventive Example 79] | 0.00689 ng/mL | 0.0673 ng/mL | 0.0264 ng/mL | –
5 | 9β-13-O-[(2R,3S)-3-(tert-Butoxycarbonylamino)-2-hydroxy-3-(4-pyridyl)propionyl]-4-O-cyclopropanecarbonyl-4,10-dideacetyl-7-deoxy-9-dihydro-9,10-O-isopropylidenebaccatin III [Inventive Example 70] | 0.00137 ng/mL | 0.160 ng/mL | 0.0184 ng/mL | –
6 | 9β-4-O-Butanoyl-13-O-[(2R,3R)-3-(tert-butoxycarbonylamino)-3-(2-furyl)-2-hydroxypropionyl]-4,10-dideacetyl-9-dihydro-9,10-O-(2-morpholinoethylidene)baccatin III [Inventive Example 22] | 0.0193 ng/mL | 0.187 ng/mL | 0.181 ng/mL | –
7 | 9β-13-O-[(2R,3S)-3-(tert-Butoxycarbonylamino)-2-hydroxy-3-(2-pyridyl)propionyl]-4-O-cyclopropanecarbonyl-4,10-dideacetyl-9-dihydro-9,10-O-isopropylidenebaccatin III [Inventive Example 69] | 0.0161 ng/mL | 0.0915 ng/mL | 0.0466 ng/mL | –
8 | 9β-13-O-[(2R,3S)-3-(tert-Butoxycarbonylamino)-2-hydroxy-3-phenylpropionyl]-4-O-cyclopropanecarbonyl-4,10-dideacetyl-9-dihydro-9,10-O-(2-morpholinoethylidene)baccatin III [Inventive Example 53] | 0.0128 ng/mL | 0.874 ng/mL | 0.0758 ng/mL | –
9 | CC(=O)O[C@H]1C(=O)[C@@]2(C)[C@H]([C@H](OC(=O)c3ccccc3)[C@]3(O)C[C@H](OC(=O)[C@H](O)[C@@H](NC(=O)c4ccccc4)c4ccccc4)C(C)=C1C3(C)C)[C@]1(OC(C)=O)CO[C@@H]1C[C@@H]2O [Taxol, reference compound] | 4.36 ng/mL (≈ 5.11 nM) | 1.20 ng/mL (≈ 1.41 nM) | 82.2 ng/mL (≈ 96.3 nM) | low efficacy
10 | 9β-13-O-[(2R,3R)-3-(tert-Butoxycarbonylamino)-3-(2-furyl)-2-hydroxypropionyl]-4,10-dideacetyl-9-dihydro-9,10-O-(2-morpholinoethylidene)-4-O-propionylbaccatin III [Inventive Example 25] | 0.0549 ng/mL | 1.31 ng/mL | 0.234 ng/mL | –
11 | 9β-13-O-[3-(tert-Butoxycarbonylamino)-2-hydroxy-2-methyl-3-(4-pyridyl)propionyl]-4,10-dideacetyl-9-dihydro-9,10-O-isopropylidene-4-O-propionylbaccatin III [Inventive Example 90] | 0.0519 ng/mL | 0.209 ng/mL | 0.0943 ng/mL | –
12 | 9β-13-O-[3-(tert-Butoxycarbonylamino)-2-hydroxy-2-methyl-3-(4-pyridyl)propionyl]-10-deacetyl-7-deoxy-9-dihydro-9,10-O-isopropylidenebaccatin III [Inventive Example 95] | 0.0034 ng/mL | 0.0992 ng/mL | 0.0121 ng/mL | –
13 | 9β-13-O-[(2R,3R)-3-(tert-Butoxycarbonylamino)-3-(2-furyl)-2-hydroxypropionyl]-10-deacetyl-7-deoxy-9-dihydro-9,10-O-(2-dimethylaminoethylidene)baccatin III [Inventive Example 105] | 0.0475 ng/mL | 0.190 ng/mL | 0.0643 ng/mL | –
14 | 9β-13-O-[3-(tert-Butoxycarbonylamino)-2-hydroxy-2-methyl-3-(4-pyridyl)propionyl]-4,10-dideacetyl-9-dihydro-4-O-ethoxycarbonyl-9,10-O-isopropylidenebaccatin III [Inventive Example 101] | 0.0301 ng/mL | 0.409 ng/mL | 0.125 ng/mL | –
15 | 9β-13-O-[3-(tert-Butoxycarbonylamino)-2-hydroxy-2-methyl-3-(4-pyridyl)propionyl]-4-O-cyclopropanecarbonyl-4,10-dideacetyl-9-dihydro-9,10-O-isopropylidenebaccatin III [Inventive Example 60] | 0.0129 ng/mL | 0.395 ng/mL | 0.0698 ng/mL | –
16 | 7α,9β-4-O-Butanoyl-13-O-[(2R,3R)-3-(tert-butoxycarbonylamino)-3-(2-furyl)-2-hydroxypropionyl]-7-deoxy-4,10-dideacetyl-9-dihydro-7-fluoro-9,10-O-(2-morpholinoethylidene)baccatin III [Inventive Example 81] | 0.0048 ng/mL | 0.0604 ng/mL | 0.050 ng/mL | –
17 | 9β-13-O-[3-(tert-Butoxycarbonylamino)-2-hydroxy-2-methyl-3-(4-pyridyl)propionyl]-4-O-cyclopropanecarbonyl-4,10-dideacetyl-7-deoxy-9-dihydro-9,10-O-isopropylidenebaccatin III [Inventive Example 65] | 0.00509 ng/mL | 0.278 ng/mL | 0.0684 ng/mL | –
18 | 9β-13-O-[(2R,3R)-3-(tert-Butoxycarbonylamino)-2-hydroxy-3-(2-thienyl)propionyl]-10-deacetyl-7-deoxy-9-dihydro-9,10-O-(2-morpholinoethylidene)baccatin III [Inventive Example 98] | 0.0126 ng/mL | 0.0696 ng/mL | 0.022 ng/mL | –
19 | 9β-13-O-[(2R,3R)-3-(tert-Butoxycarbonylamino)-3-(2-furyl)-2-hydroxypropionyl]-4-O-cyclopropanecarbonyl-4,10-dideacetyl-9-dihydro-9,10-O-(2-morpholinoethylidene)baccatin III [Inventive Example 51] | 0.00754 ng/mL | 0.354 ng/mL | 0.0669 ng/mL | –
20 | 9β-13-O-[3-(tert-Butoxycarbonylamino)-2-hydroxy-2-methyl-3-(4-pyridyl)propionyl]-4-O-cyclopropanecarbonyl-7-deoxy-4,10-dideacetyl-6,7-didehydro-9-dihydro-9,10-O-isopropylidenebaccatin III [Inventive Example 121] | 0.00173 ng/mL | 0.803 ng/mL | 0.0498 ng/mL | –
